Measurements as given in article PMC7988117, “OMN6 a novel bioengineered peptide for the treatment of multidrug resistant Gram negative bacteria” (Scientific Reports, 2021).
Ends that are not written are not given here.

Columns and labels:
A. baumannii BAA-1793 = details: determined by ATCC according to CLSI guidelines, ref ATCC; cited from earlier work; note: key: S, sensitive; I, intermediate; R, resistant
Excerpt: Supplement 41598_2021_86155_MOESM1_ESM.docx, table 3: Table S3. Supplementary information about the resistance pattern of the bacterial strain A. baumannii BAA-1793 used in the Minimum Inhibitory Concentration study presented in Table 1.

Acinetobacter baumannii = assay: VITEK 2 antimicrobial sensitivity characterization; assay type: cell-based; details: VITEK 2 system, CLSI ranges
Protocol: (§1) This experiment was conducted by Omnix Medical, by JMI Laboratories (North Liberty, IA, USA) and by Aptuit (Verona) S.r.l. (Italy), an Evotec Company. All studies were performed according to Clinical and Laboratory Standards Institute guidelines[30] for the application of the broth microdilution method. Reference strains from American Type Culture Collection (ATCC) and clinical isolates from the Evotec EvostrAIn and the JMI Laboratories SENTRY surveillance program culture collections (Acinetobacter baumannii: ACC 00445, ACC 00527, ACC 00535, ATCC 17978, ATCC 19606, ATCC BAA-1793, ACC 01076, ACC 01077, NCTC 13420, JMI #1088100 and JMI #1001007; Klebsiella pneumoniae: ATCC 43816 and ATCC BAA-1705; Escherichia coli: ACC 01001 and ATCC 25922; Staphylococcus aureus: ATCC 29213, ATCC BAA-44 and ATCC 33591; Bacillus cereus: ATCC 14579; Enterococcus faecalis: ATCC 29212; Enterococcus faecium: ATCC BAA-2319) were used. The antimicrobial activity of OMN6 was determined by 12 serial two-fold dilutions in water of the 100-fold highest compound solution; 1 µL of each well was transferred into 96 microtiter plates (final concentration: 256–0.12 µg/mL). In most strains, same procedure was used to determine the colistin antimicrobial activity (final concentration: 32–0.015 µg/mL). Bacterial strains were sub-cultured on the agar plates and incubated for 18–24 h at 35 ± 2 °C in ambient air. Following incubation, the inoculum was prepared from isolated colonies and adjusted to 0.5 McFarland turbidity standard (1 to 2 × 10^8 colony-forming units/mL) in 0.9% saline. Bacterial suspension was then diluted 1:200 in Muller-Hinton broth (from BD; Becton, Dickinson and Company, Franklin Lakes, NJ, USA) and within 15 min 100 µL/well were dispensed. Growth-control wells and sterility-check wells (uninoculated well) were present in each plate. Plates were incubated for 18–24 h at 35 ± 2 °C in ambient air. […] The antimicrobial activity to other antibiotics on most bacterial strains was determined by Evotec using the antimicrobial sensitive test from the VITEK 2 automated microbiology system (bioMérieux SA, Marcy l'Etoile, France; data presented in Table S1), or by ATCC according to CLSI (Clinical and Laboratory Standards Institute) guidelines[30]
(§2) Table S1. Supplementary information about the resistance pattern of 14 bacterial strains used in the Minimum Inhibitory Concentration study presented in Table 1. The resistance pattern of the different bacterial isolates was characterized by broth microdilution studies (for colistin) or with the VITEK 2 system (for the other antibiotics).

Escherichia coli = assay: VITEK 2 antimicrobial sensitivity characterization; assay type: cell-based; details: VITEK 2 system, CLSI ranges
Protocol: as §1, §2

Klebsiella pneumoniae = assay: VITEK 2 antimicrobial sensitivity characterization; assay type: cell-based; details: VITEK 2 system, CLSI ranges
Protocol: as §1, §2

HEK293T cells = assay type: cell-based
Protocol: HEK-293T17 cells (ATCC CRL-1573) were purchased from ATCC and cultured to 80% confluency according to the ATCC culture method, using high-glucose and L-Glutamine Dulbecco's Modified Eagle Medium (DMEM) medium (ATCC catalog number 30-2002) supplemented with 10% fetal bovine serum and 1% Penicillin–Streptomycin solution (all from Biological Industries). For the experiment purposes, 30,000 cells were transferred to a 96-well plate (experiment plate) in a final volume of 100 µL of medium. The experiment plate was incubated at 5% CO2 and 37 °C for approximately 18 h. After 18 h, medium was discarded, and cells were co-incubated with OMN6, Melittin (Sigma-Aldrich) or dimethyl sulfoxide (DMSO; MP Biomedical LLC, Solon, OH, USA) that were prepared in new medium at desired concentrations. The experiment plate was incubated at 5% CO2 and 37 °C for 24 h. Then, glutaraldehyde at a final concentration of 0.5% was added in all wells for 10 min for cell fixation. After washing the plate 3 times with DDW, the experiment plate was dried overnight. Then, cells were washed with 0.1 M Borate buffer (pH = 8.5) for 1 min. 100 µL Methylene Blue diluted in the same Borate buffer was added to all wells for 1 h. Wells were washed with DDW and plate was dried overnight. Color extraction was executed by adding 0.1 M HCl. After an incubation at 37 °C for 1 h, cell survival was determined via absorbance at 620 nm using a microplate reader.

Staphylococcus aureus = assay: VITEK 2 antimicrobial sensitivity characterization; assay type: cell-based; details: VITEK 2 system, CLSI ranges; note: key: S, sensitive; I, intermediate; R, resistant
Protocol: as §1, §2

Proteinase-K = target: T1, Proteinase-K (Parengyodontium album, UniProt P06873); assay: Peptide stability to Proteinase-K (SDS-PAGE); assay type: in vitro ADME; details: 10 µg peptide with 5 or 20 ng Proteinase-K (0.16 or 0.66 µg/mL), 2 h, 37 °C; 15% acrylamide SDS-PAGE, Coomassie stain
T1 construct: purchased Sigma-Aldrich
T1 sequence (P06873 106-384): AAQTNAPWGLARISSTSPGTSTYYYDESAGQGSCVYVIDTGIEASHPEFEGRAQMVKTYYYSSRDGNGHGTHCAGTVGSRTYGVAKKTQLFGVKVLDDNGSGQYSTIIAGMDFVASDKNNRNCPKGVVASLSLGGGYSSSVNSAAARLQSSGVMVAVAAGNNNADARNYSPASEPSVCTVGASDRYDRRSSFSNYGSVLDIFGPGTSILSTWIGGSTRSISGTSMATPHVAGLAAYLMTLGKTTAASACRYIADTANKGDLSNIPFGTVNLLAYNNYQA
Protocol: 10 µg of synthetic cecropin A (Genscript, Piscataway, NJ, USA), OMN6, or bovine serum albumin (BSA; Sigma-Aldrich, St. Louis, MO, USA) were incubated with 5 or 20 ng Proteinase-K (Sigma-Aldrich; final treatment concentration of 0.16 or 0.66 µg/mL respectively) for 2 h at 37 °C, and separated on a 15% acrylamide gel (Bio-Rad, Hercules, CA, USA) by SDS-PAGE. The gel was then stained with Coomassie dye and excess color was removed over-night.

Row | Compound | Resistance pattern (A. baumannii BAA-1793) | VITEK characterization (resistance range) (Acinetobacter baumannii; A. baumannii ACC 00445) | VITEK characterization (resistance range) (Acinetobacter baumannii; A. baumannii ACC 00527) | VITEK characterization (resistance range) (Acinetobacter baumannii; A. baumannii ACC 00535) | VITEK characterization (resistance range) (Acinetobacter baumannii; A. baumannii ATCC 17978) | VITEK characterization (resistance range) (Acinetobacter baumannii; A. baumannii ATCC 19606) | VITEK characterization (resistance range) (Escherichia coli; E. coli ACC 01001) | VITEK characterization (resistance range) (Escherichia coli; E. coli ATCC 25922) | VITEK characterization (resistance range) (Klebsiella pneumoniae; K. pneumoniae ATCC 43816) | VITEK characterization (resistance range) (Klebsiella pneumoniae; K. pneumoniae ATCC BAA-1705) | Cytotoxicity on HEK293T cells (HEK293T cells) | VITEK characterization (resistance range) (Acinetobacter baumannii; A. baumannii ACC 01076) | VITEK characterization (resistance range) (Acinetobacter baumannii; A. baumannii ACC 01077) | VITEK characterization (resistance range) (Acinetobacter baumannii; A. baumannii NCTC 13420) | VITEK characterization (resistance range) (Staphylococcus aureus; S. aureus ATCC 29213) | VITEK characterization (resistance range) (Staphylococcus aureus; S. aureus ATCC 33591) | Stability after exposure to Proteinase-K (Proteinase-K)
1 | CC(C)(O/N=C(\C(=O)N[C@@H]1C(=O)N2C(C(=O)[O-])=C(C[n+]3ccccc3)CS[C@H]12)c1csc(N)n1)C(=O)O [CAZ, ceftazidime] | R | R | R | R | S | I | S | S | S | R | – | – | – | – | – | – | –
2 | CO/N=C(\C(=O)N[C@@H]1C(=O)N2C(C(=O)O)=C(COC(C)=O)CS[C@H]12)c1csc(N)n1 [CTX, cefotaxime] | R | R | R | R | S | I | S | S | S | R | – | – | – | – | – | – | –
3 | C[S+](C)[O-] [DMSO, dimethyl sulfoxide] | – | – | – | – | – | – | – | – | – | – | > 90% | – | – | – | – | – | –
4 | C[C@@H](O)[C@H]1C(=O)N2C(C(=O)O)=C(SCCN=CN)C[C@H]12 [IMP, imipenem] | R | R | R | I | S | S | S | S | S | R | – | R | R | I | S | R | –
5 | KWKLFKKIEKVGQNIRDGIIKAGPAVAVVGQATQIAK-NH2 [Cecropin A] | – | – | – | – | – | – | – | – | – | – | – | – | – | – | – | – | major degradation
